Test results: US8017612B2, “Piperazine compound and use thereof as a HCV polymerase inhibitor” (priority 2006, dated 2011)

Columns and labels:
[1] = target: T1, HCV polymerase (NS5B) type 1a (Hepatitis C virus genotype 1a, UniProt P26664); assay: Assay of enzyme (HCV polymerase) inhibitory activity, type 1a enzyme; format: biochemical, HCV type 1a (cloned from the blood of patients); conditions: HCV polymerase inhibitory activity (IC50), 1a, type 1a enzyme 1.5 μg/ml, 25° C., 60 min
T1 construct: made in house; host or cells: Escherichia coli (by the 'similar method' of the 1b enzyme)
Method in brief: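 Patient-derived type 1a NS5B (C-terminal 47-aa deletion, His-tagged, E. coli-expressed) at 1.5 μg/ml was reacted with 5 μg/ml 3′UTR-containing substrate RNA, 50 μM ATP/GTP/CTP, 2 μM UTP plus [3H]UTP, pH 7.5, 25° C for 60 min. TCA-precipitated RNA radioactivity was counted; IC50 from ± compound.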

[2] = target: T2, HCV polymerase (NS5B) type 1b (Hepatitis C virus genotype 1b, UniProt P26663); assay: Assay of enzyme (HCV polymerase) inhibitory activity, type 1b enzyme; format: biochemical, HCV BK strain (type 1b); conditions: HCV polymerase inhibitory activity (IC50), 1b, type 1b enzyme 0.5 μg/ml, 25° C., 60 min
T2 construct: a region encoding NS5B (J Virol 1991 March, 65(3), 1105-13, 544 amino acids after deletion of 47 amino acids on the C-terminal); 6xHis (C); made in house; host or cells: Escherichia coli
Method in brief: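 NS5B from HCV BK strain (type 1b), C-terminal 47 aa deleted, C-terminal His6-tagged, E. coli-expressed, 0.5 μg/ml, with ~450 nt substrate RNA carrying the 3′ UTR (polyU, 3′X) at 5 μg/ml. Incubation 60 min at 25 °C with 50 μM ATP/GTP/CTP, 2 μM UTP plus [3H]UTP, pH 7.5 Tris.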

| Structure (SMILES) | IC50 [1] | IC50 [2] |
| --- | --- | --- |
| CCC(F)(F)c1ccc(CNC(=O)[C@H]2CN(C(=O)C3CC3)CCN2S(=O)(=O)c2ccc(OC(F)(F)F)cc2)cc1 [Example 610, (R)-4-cyclopropanecarbonyl-1-(4-trifluoromethoxy-benzenesulfonyl)-piperazine-2-carboxylic acid 4-(1,1-difluoro-propyl)-benzylamide] | 100 to 1000 nM | 100 to 1000 nM |
| CCC(F)(F)c1ccc(CNC(=O)[C@H]2CN(C(=O)C(C)(C)C)CCN2S(=O)(=O)c2ccc(OC(F)(F)F)cc2)cc1 [Example 611, (R)-4-(2,2-dimethyl-propionyl)-1-(4-trifluoromethoxy-benzenesulfonyl)-piperazine-2-carboxylic acid 4-(1,1-difluoro-propyl)-benzylamide] | > 1000 nM | > 1000 nM |
| CCC(F)(F)c1ccc(CNC(=O)[C@H]2CN(C(=O)Nc3nc(C(C)(C)O)cs3)CCN2S(=O)(=O)c2ccc(OC(F)(F)F)cc2)cc1 [Example 612, (R)-4-(4-trifluoromethoxy-benzenesulfonyl)-piperazine-1,3-dicarboxylic acid 3-[4-(1,1-difluoro-propyl)-benzylamide] 1-{[4-(1-hydroxy-1-methyl-ethyl)-thiazol-2-yl]-amide}] | > 1000 nM | 100 to 1000 nM |
| CC(=O)N1CCN(S(=O)(=O)c2ccc(OC(F)(F)F)cc2)[C@@H](C(=O)NCc2ccc(O)cc2)C1 [Example 613, (R)-4-acetyl-1-(4-trifluoromethoxy-benzenesulfonyl)-piperazine-2-carboxylic acid 4-hydroxy-benzylamide] | > 1000 nM | > 1000 nM |
| CC(=O)N1CCN(S(=O)(=O)c2ccc(OC(F)(F)F)cc2)[C@@H](C(=O)NCc2ccc(-c3ccccc3)s2)C1 [Example 614, (R)-4-acetyl-1-(4-trifluoromethoxy-benzenesulfonyl)-piperazine-2-carboxylic acid (5-phenyl-thiophen-2-ylmethyl)-amide] | 100 to 1000 nM | 100 to 1000 nM |
| CCC(F)(F)c1ccc(CNC(=O)[C@H]2CN(c3cnc4cncnc4n3)CCN2S(=O)(=O)c2ccc(OC(F)(F)F)cc2)cc1 [Example 615, (R)-4-pteridin-7-yl-1-(4-trifluoromethoxy-benzenesulfonyl)-piperazine-2-carboxylic acid 4-(1,1-difluoro-propyl)-benzylamide] | < 100 nM | < 100 nM |
| CCC(F)(F)c1ccc(CNC(=O)[C@H]2CN(c3cnc4c(n3)NC(=O)OC4)CCN2S(=O)(=O)c2ccc(OC(F)(F)F)cc2)cc1 [Example 616, (R)-4-(2-oxo-1,4-dihydro-2H-pyrazino[2,3-d][1,3]oxazin-7-yl)-1-(4-trifluoromethoxy-benzenesulfonyl)-piperazine-2-carboxylic acid 4-(1,1-difluoro-propyl)-benzylamide] | < 100 nM | < 100 nM |
| CC(C)(C)c1ccc(CNC(=O)[C@H]2CN(c3cnc4cncnc4n3)CCN2S(=O)(=O)c2ccc(OC(F)(F)F)cc2)cc1 [Example 617, (R)-4-pteridin-7-yl-1-(4-trifluoromethoxy-benzenesulfonyl)-piperazine-2-carboxylic acid 4-tert-butyl-benzylamide] | < 100 nM | < 100 nM |
| CC(C)(C)c1ccc(CNC(=O)[C@H]2CN(c3nc4nn[nH]c(=O)c4s3)CCN2S(=O)(=O)c2ccc(OC(F)(F)F)cc2)cc1 [Example 618, (R)-4-(4-oxo-3,4-dihydro-thiazolo[4,5-d][1,2,3]triazin-6-yl)-1-(4-trifluoromethoxy-benzenesulfonyl)-piperazine-2-carboxylic acid 4-tert-butyl-benzylamide] | < 100 nM | < 100 nM |
| CCN(C)c1ccc(CNC(=O)[C@H]2CN(c3cnc4cncnc4n3)CCN2S(=O)(=O)c2ccc(OC(F)(F)F)cc2)cc1 [Example 619, (R)-4-pteridin-7-yl-1-(4-trifluoromethoxy-benzenesulfonyl)-piperazine-2-carboxylic acid 4-(ethyl-methyl-amino)-benzylamide] | < 100 nM | < 100 nM |
| CC(C)(C)c1ccc(CNC(=O)[C@H]2CN(c3ccc(C(=O)O)nc3)CCN2S(=O)(=O)c2ccc(OC(F)(F)F)cc2)cc1 [Example 620, 5-[(R)-3-(4-tert-butyl-benzylcarbamoyl)-4-(4-trifluoromethoxy-benzenesulfonyl)-piperazin-1-yl]-pyridine-2-carboxylic acid] | < 100 nM | < 100 nM |
| CC(=O)N1CCN(S(=O)(=O)c2ccc(OC(F)(F)F)cc2)[C@@H](C(=O)NCC2(O)CCCCC2)C1 [Example 621, (R)-4-acetyl-1-(4-trifluoromethoxy-benzenesulfonyl)-piperazine-2-carboxylic acid (1-hydroxy-cyclohexylmethyl)-amide] | > 1000 nM | > 1000 nM |
| CC(=O)N1CCN(S(=O)(=O)c2ccc(OC(F)(F)F)cc2)[C@@H](C(=O)NCc2ccc(-c3cccs3)s2)C1 [Example 622, (R)-4-acetyl-1-(4-trifluoromethoxy-benzenesulfonyl)-piperazine-2-carboxylic acid ([2,2′]bithiophenyl-5-ylmethyl)-amide] | < 100 nM | 100 to 1000 nM |
| CC(=O)N1CCN(S(=O)(=O)c2ccc(OC(F)(F)F)cc2)[C@@H](C(=O)NCc2ccc(-c3cccs3)cc2)C1 [Example 623, (R)-4-acetyl-1-(4-trifluoromethoxy-benzenesulfonyl)-piperazine-2-carboxylic acid 4-thiophen-2-yl-benzylamide] | < 100 nM | 100 to 1000 nM |
| CCCc1ccc(CNC(=O)[C@H]2CN(C(C)=O)CCN2S(=O)(=O)c2ccc(OC(F)(F)F)cc2)cc1O [Example 624, (R)-4-acetyl-1-(4-trifluoromethoxy-benzenesulfonyl)-piperazine-2-carboxylic acid 3-hydroxy-4-propyl-benzylamide] | > 1000 nM | 100 to 1000 nM |
| CCC(F)(F)c1ccc(CNC(=O)[C@H]2CN(c3nc(OC)ns3)CCN2S(=O)(=O)c2ccc(OC(F)(F)F)cc2)cc1 [Example 625, (R)-4-(3-methoxy-[1,2,4]thiadiazol-5-yl)-1-(4-trifluoromethoxy-benzenesulfonyl)-piperazine-2-carboxylic acid 4-(1,1-difluoro-propyl)-benzylamide] | < 100 nM | < 100 nM |
| CCC(F)(F)c1ccc(CNC(=O)[C@H]2CN(c3ccn4ncnc4n3)CCN2S(=O)(=O)c2ccc(OC(F)(F)F)cc2)cc1 [Example 626, (R)-4-[1,2,4]triazolo[1,5-a]pyrimidin-5-yl-1-(4-trifluoromethoxy-benzenesulfonyl)-piperazine-2-carboxylic acid 4-(1,1-difluoro-propyl)-benzylamide] | < 100 nM | < 100 nM |
| O=C(NCc1ccc(OC(F)(F)F)cc1)[C@H]1CN(c2cnc3cncnc3n2)CCN1S(=O)(=O)c1ccc(OC(F)(F)F)cc1 [Example 627, (R)-4-pteridin-7-yl-1-(4-trifluoromethoxy-benzenesulfonyl)-piperazine-2-carboxylic acid 4-trifluoromethoxy-benzylamide] | < 100 nM | < 100 nM |
| CCCc1ccc(CNC(=O)[C@H]2CN(c3cnc4[nH]c(=O)[nH]c4n3)CCN2S(=O)(=O)c2ccc(OC(F)(F)F)cc2)cc1 [Example 628, (R)-4-(2-oxo-2,3-dihydro-1H-imidazo[4,5-b]pyrazin-5-yl)-1-(4-trifluoromethoxy-benzenesulfonyl)-piperazine-2-carboxylic acid 4-propyl-benzylamide] | 100 to 1000 nM | < 100 nM |
| O=C(NCc1ccc(Cl)cc1)[C@H]1CN(c2cnc3cncnc3n2)CCN1S(=O)(=O)c1ccc(OC(F)(F)F)cc1 [Example 629, (R)-4-pteridin-7-yl-1-(4-trifluoromethoxy-benzenesulfonyl)-piperazine-2-carboxylic acid 4-chloro-benzylamide] | 100 to 1000 nM | < 100 nM |
| CN(C)c1ccc(CNC(=O)[C@H]2CN(c3cnc4cncnc4n3)CCN2S(=O)(=O)c2ccc(OC(F)(F)F)cc2)cn1 [Example 630, (R)-4-pteridin-7-yl-1-(4-trifluoromethoxy-benzenesulfonyl)-piperazine-2-carboxylic acid (6-dimethylamino-pyridin-3-ylmethyl)-amide] | < 100 nM | < 100 nM |
| CCCc1ccc(CNC(=O)[C@H]2CN(c3ccc(C(=O)O)nc3)CCN2S(=O)(=O)c2ccc(OC(F)(F)F)cc2)cc1 [Example 631, 5-[(R)-3-(4-propyl-benzylcarbamoyl)-4-(4-trifluoromethoxy-benzenesulfonyl)-piperazin-1-yl]-pyridine-2-carboxylic acid] | < 100 nM | < 100 nM |
| CCC(F)(F)c1ccc(CNC(=O)[C@H]2CN(c3cnc4ccccc4n3)CCN2S(=O)(=O)c2ccc(OC(F)(F)F)cc2)cc1 [Example 632, (R)-4-quinoxalin-2-yl-1-(4-trifluoromethoxy-benzenesulfonyl)-piperazine-2-carboxylic acid 4-(1,1-difluoro-propyl)-benzylamide] | < 100 nM | < 100 nM |
